Experimental data: US9796696B2, “Substituted arylcyclopentenes as therapeutic agents” (Allergan, Inc., priority 2007, dated 2017)

Tests used:
EP2 [1] = biological target: T1, EP2 (Homo sapiens, UniProt P43116); assay: EP2 cAMP EC50 (in vitro testing); type: cell-based
Excerpt: (§1) U.S. patent application Ser. No. 11/553,143, filed on Oct. 26, 2006, describes the methods used to obtain the in vitro data in the tables below.

EP2 [2] = biological target: T1, EP2; assay: EP2 Ki (in vitro testing); type: binding
Excerpt: as §1

EP2 [3] = biological target: T1, EP2; assay: EP2 Ca2+ EC50 (in vitro testing); type: cell-based
Excerpt: as §1

EP3 = biological target: T2, EP3 (Homo sapiens, UniProt P43115); assay: Other receptors Ca2+ EC50: EP3; type: cell-based; details: NA not defined in the patent
T2 sequence (P43115 1-390): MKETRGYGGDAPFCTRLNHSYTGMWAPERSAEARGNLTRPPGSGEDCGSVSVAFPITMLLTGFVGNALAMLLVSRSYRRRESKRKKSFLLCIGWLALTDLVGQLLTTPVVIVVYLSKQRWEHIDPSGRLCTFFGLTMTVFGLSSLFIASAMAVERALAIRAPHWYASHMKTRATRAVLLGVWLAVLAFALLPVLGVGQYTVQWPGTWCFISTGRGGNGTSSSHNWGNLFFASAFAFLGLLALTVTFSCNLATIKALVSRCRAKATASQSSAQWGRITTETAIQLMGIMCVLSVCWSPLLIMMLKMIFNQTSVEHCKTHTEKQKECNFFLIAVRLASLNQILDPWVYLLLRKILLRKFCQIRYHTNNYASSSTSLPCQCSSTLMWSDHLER
Excerpt: as §1

EP4 [4] = biological target: T3, EP4 (Homo sapiens, UniProt P35408); assay: EP4 Ca2+ EC50 (in vitro testing); type: cell-based
Excerpt: as §1

EP4 [5] = biological target: T3, EP4; assay: EP4 Ki (in vitro testing); type: binding; details: read-out: EP4 Ki EC50
Excerpt: as §1

[6] = In vivo testing, Max. ΔIOP
Excerpt: (§2) U.S. Pat. No. 7,091,231 describes the methods used for these in vivo tests.

[7] = In vivo testing, Max. ΔIOP, Max. hyperemia
Excerpt: as §2

DP = biological target: T4, DP (Homo sapiens, UniProt Q13258); assay: Other receptors Ca2+ EC50: DP; type: cell-based; details: NA not defined in the patent
T4 sequence (Q13258 1-359): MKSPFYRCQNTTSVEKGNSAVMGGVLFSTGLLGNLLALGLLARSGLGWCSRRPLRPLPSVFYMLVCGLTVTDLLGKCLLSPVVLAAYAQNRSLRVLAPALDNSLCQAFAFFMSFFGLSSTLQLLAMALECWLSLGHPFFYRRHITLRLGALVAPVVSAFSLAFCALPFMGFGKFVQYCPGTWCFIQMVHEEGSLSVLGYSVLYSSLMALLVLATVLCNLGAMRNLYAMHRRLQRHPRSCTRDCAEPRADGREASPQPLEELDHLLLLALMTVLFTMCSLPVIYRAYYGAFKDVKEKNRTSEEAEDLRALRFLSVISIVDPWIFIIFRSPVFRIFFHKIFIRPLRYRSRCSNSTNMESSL
Excerpt: as §1

T1 sequence (P43116 whole entry): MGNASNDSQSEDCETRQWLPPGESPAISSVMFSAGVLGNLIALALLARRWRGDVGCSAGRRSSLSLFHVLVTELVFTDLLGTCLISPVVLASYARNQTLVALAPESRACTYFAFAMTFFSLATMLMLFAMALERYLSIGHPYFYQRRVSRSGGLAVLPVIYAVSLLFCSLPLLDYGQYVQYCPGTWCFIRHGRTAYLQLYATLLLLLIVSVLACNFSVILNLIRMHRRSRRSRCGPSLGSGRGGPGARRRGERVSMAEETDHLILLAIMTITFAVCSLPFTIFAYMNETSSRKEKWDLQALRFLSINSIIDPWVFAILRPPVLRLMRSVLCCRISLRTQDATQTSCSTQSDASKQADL
T3 sequence (P35408 whole entry): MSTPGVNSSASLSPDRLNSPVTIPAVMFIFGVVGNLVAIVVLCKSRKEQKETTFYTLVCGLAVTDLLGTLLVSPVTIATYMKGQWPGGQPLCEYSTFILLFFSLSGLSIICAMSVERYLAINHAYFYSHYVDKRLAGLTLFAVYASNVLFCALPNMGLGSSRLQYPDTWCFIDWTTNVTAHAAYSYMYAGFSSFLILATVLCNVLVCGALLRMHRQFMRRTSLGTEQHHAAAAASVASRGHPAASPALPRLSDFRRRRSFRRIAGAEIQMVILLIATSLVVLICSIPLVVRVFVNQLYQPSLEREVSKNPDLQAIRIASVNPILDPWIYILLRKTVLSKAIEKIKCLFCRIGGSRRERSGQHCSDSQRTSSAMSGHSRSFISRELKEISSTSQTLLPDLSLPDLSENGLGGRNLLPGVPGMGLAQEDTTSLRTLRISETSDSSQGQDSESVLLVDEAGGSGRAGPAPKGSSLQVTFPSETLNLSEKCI

SMILES | EC50 (EP2 [1]) [nM] | Ki (EP2 [2]) [nM] | EC50 (EP2 [3]) [nM] | EC50 (EP3) [nM] | EC50 (EP4 [4]) [nM] | Ki (EP4 [5]) [nM] | other results
CCCCC[C@H](O)c1ccc(C2=C(Cl)CC[C@@H]2CCCc2ccc(C(=O)O)s2)cc1 | 0.6 | 16 | 355 | 1490 | > 10000 | 3680 | –
CCCCC[C@@H](O)c1ccc(C2=C(Cl)CC[C@@H]2CCCc2ccc(C(=O)O)s2)cc1 | 0.2 | 5 | 83 | – | > 10000 | 914 | –
CCCCCC(O)c1ccc(C2=CCC[C@@H]2CCCc2ccc(C(=O)O)s2)cc1 (stereo partly drawn) | 0.9 | 5 | 19 | – | > 10000 | 1180 | –
CCCCCC(O)c1ccc(C2=C(F)CC[C@@H]2CCCc2ccc(C(=O)O)s2)cc1 (stereo partly drawn) | 0.2 | 2.4 | 27 | 1820 | 2960 | > 10000 | –
CCCCCC(O)c1ccc(C2=C(C#N)CC[C@@H]2CCCc2ccc(C(=O)O)s2)cc1 (stereo partly drawn) | 154 | 1370 | – | 8560 | – | 175 | –
CCCCCC(O)c1ccc(C2=C(C#N)CC[C@@H]2CCCc2ccc(C(=O)O)s2)cc1 (single isomer, unassigned) [Compound 3] | – | – | – | – | – | – | Max. ΔIOP (%) ([6]; Conc. 0.003 g/100 mL): 46%; Max. hyperemia ([7]; Conc. 0.003 g/100 mL): 1.3; Max. ΔIOP (%) ([7]; Conc. 0.003 g/100 mL): 35%
CCCCCC(O)c1ccc(C2=C(C#N)CC[C@@H]2CCCc2ccc(C(=O)O)s2)cc1 (single isomer, unassigned) [Compound 4] | – | – | – | – | – | – | Max. ΔIOP (%) ([6]; Conc. 0.003 g/100 mL): 39%; Max. hyperemia ([7]; Conc. 0.003 g/100 mL): 1.4; Max. ΔIOP (%) ([7]; Conc. 0.003 g/100 mL): 35%
CCCCCC(O)c1ccc(C2=C(C#N)CC[C@@H]2CCCc2ccc(C(=O)O)s2)cc1 (single isomer, unassigned) [drawing 84] | 0.45 | 5 | 74 | 3540 | 2800 | > 10000 | –
CCCCCC(O)c1ccc(C2=C(C#N)CC[C@@H]2CCCc2ccc(C(=O)O)s2)cc1 (single isomer, unassigned) [drawing 85] | 0.4 | 3 | 65 | 202 | 3350 | 16000 | –
CCCCCC(O)c1ccc(C2=C(Cl)CC[C@@H]2CCCc2ccc(C(=O)O)s2)cc1 (stereo partly drawn) [Compound 1] | – | – | – | – | – | – | Max. ΔIOP (%) ([6]; 0.1% dose): 62 (0.1% dose); Max. hyperemia ([7]; Conc. 0.01 g/100 mL): 1.7; Max. ΔIOP (%) ([7]; Conc. 0.01 g/100 mL): 39%
CCCCCC(O)c1ccc(C2=C(Cl)CC[C@@H]2CCCc2ccc(C(=O)OC(C)C)s2)cc1 (stereo partly drawn) [Compound 2] | – | – | – | – | – | – | Max. ΔIOP (%) ([6]; 0.1% dose): 26%; Max. hyperemia ([7]; Conc. 0.1 g/100 mL): 1.7; Max. ΔIOP (%) ([7]; Conc. 0.1 g/100 mL): 21%
CCCCCC(O)c1ccc(C2=C(C#N)CC[C@@H]2CCCc2ccc(C(=O)OCCO)s2)cc1 (stereo partly drawn) [Compound 5] | – | – | – | – | – | – | Max. ΔIOP (%) ([6]; Conc. 0.01 g/100 mL): 53%; Max. hyperemia ([7]; Conc. 0.01 g/100 mL): 1.9; Max. ΔIOP (%) ([7]; Conc. 0.01 g/100 mL): 41%
CCCCC[C@H](O)c1ccc(C2=CCC[C@@H]2CCCc2ccc(C(=O)O)s2)cc1 [Compound 6] | – | – | – | – | – | – | Max. ΔIOP (%) ([6]; Conc. 0.01 g/100 mL): 31%; Max. hyperemia ([7]; Conc. 0.01 g/100 mL): 2.0; Max. ΔIOP (%) ([7]; Conc. 0.01 g/100 mL): 32%
CCCCC[C@@H](O)c1ccc(C2=CCC[C@@H]2CCCc2ccc(C(=O)O)s2)cc1 [Compound 7] | – | – | – | – | – | – | Max. hyperemia ([7]; Conc. 0.01 g/100 mL): 1.8; Max. ΔIOP (%) ([7]; Conc. 0.01 g/100 mL): 37%
CCCCCC(O)c1ccc(C2=C(Br)CC[C@@H]2CCCc2ccc(C(=O)O)s2)cc1 (stereo partly drawn) [drawing 79] | 0.4 | 1.5 | 403 | 2340 | > 10000 | 966 | –
CCCCCC(O)c1ccc(C2=C(CO)CC[C@@H]2CCCc2ccc(C(=O)O)s2)cc1 (stereo partly drawn) [drawing 81] | 48 | 53 | 119 | 6980 | > 10000 | 1540 | –
CCCCCC(O)c1ccc(C2=C(O)C(=O)C[C@@H]2C/C=C\CCCC(=O)O)cc1 (stereo partly drawn) [drawing 82] | 54 | 313 | 442 | 9640 | > 10000 | 785 | –
CCCCCC(O)c1ccc(C2C(Br)=CC[C@@H]2CCCc2ccc(C(=O)O)s2)cc1 (stereo partly drawn) [drawing 83] | 0.7 | 5 | 847 | 3220 | > 10000 | 522 | –
CCCCC[C@H](O)c1ccc(C2=CCC[C@@H]2CCCc2ccc(C(=O)O)s2)cc1 [drawing 86] | 1 | 18 | 27 | 3090 | – | – | EC50 (DP): 7740 nM
CCCCC[C@@H](O)c1ccc(C2=CCC[C@@H]2CCCc2ccc(C(=O)O)s2)cc1 [drawing 87] | 0.8 | 10 | 36 | 5890 | – | 16300 | EC50 (DP): 9920 nM
CCCCCC(O)c1ccc(C2=C(C)CC[C@@H]2CCCc2ccc(C(=O)O)s2)cc1 (stereo partly drawn) [drawing 88] | 4 | 16 | 193 | 7340 | 955 | > 10000 | –
